Results taken from PMC6855808, “Direct binding of phosphatidylglycerol at specific sites modulates desensitization of a ligand-gated ion channel” (eLife, 2019).
“And” between values parts separate entries of the source, which are not always exact repeats. Equal entries are not always repeated. Where two headings read alike, the source gives them in different places.

Assays:
ELIC R301Q = target: T1, ELIC R301Q (Dickeya chrysanthemi, UniProt P0C7B7, R300Q); assay: Excised patch-clamp recordings from giant liposomes; type: biochemical, Erwinia chrysanthemi; details: 25 mole% POPG
T1 construct: MBP (N, cleaved yes); made in house; host or cells: OverExpress C43 (DE3) E. coli

ELIC R301Q/R299Q = target: T2, ELIC R301Q/R299Q (Dickeya chrysanthemi, UniProt P0C7B7, R298Q/R300Q); assay: as above; type: biochemical, Erwinia chrysanthemi; details: 25 mole% POPG
T2 construct: MBP (N, cleaved yes); made in house; host or cells: OverExpress C43 (DE3) E. coli

ELIC R123Q = target: T3, ELIC R123Q (Dickeya chrysanthemi, UniProt P0C7B7, INS163G/R123Q); assay: as above; type: biochemical, Erwinia chrysanthemi; details: 25 mole% POPG
T3 construct: MBP (N, cleaved yes); made in house; host or cells: OverExpress C43 (DE3) E. coli

ELIC R123Q/R299Q = target: T4, ELIC R123Q/R299Q (Dickeya chrysanthemi, UniProt P0C7B7, R123Q/R298Q); assay: as above; type: biochemical, Erwinia chrysanthemi; details: 25 mole% POPG
T4 construct: MBP (N, cleaved yes); made in house; host or cells: OverExpress C43 (DE3) E. coli

ELIC L238A = target: T5, ELIC L238A (Dickeya chrysanthemi, UniProt P0C7B7, L237A); assay: as above; type: biochemical, Erwinia chrysanthemi; details: 25 mole% POPG
T5 construct: MBP (N, cleaved yes); made in house; host or cells: OverExpress C43 (DE3) E. coli

ELIC R117Q = target: T6, ELIC R117Q (Dickeya chrysanthemi, UniProt P0C7B7, INS163G/R117Q); assay: as above; type: biochemical, Erwinia chrysanthemi; details: 25 mole% POPG
T6 construct: MBP (N, cleaved yes); made in house; host or cells: OverExpress C43 (DE3) E. coli

ELIC R299Q = target: T7, ELIC R299Q (Dickeya chrysanthemi, UniProt P0C7B7, R298Q); assay: as above; type: biochemical, Erwinia chrysanthemi; details: 25 mole% POPG
T7 construct: MBP (N, cleaved yes); made in house; host or cells: OverExpress C43 (DE3) E. coli

ELIC R286Q/R299Q = target: T8, ELIC R286Q/R299Q (Dickeya chrysanthemi, UniProt P0C7B7, R285Q/R298Q); assay: as above; type: biochemical, Erwinia chrysanthemi; details: 25 mole% POPG
T8 construct: MBP (N, cleaved yes); made in house; host or cells: OverExpress C43 (DE3) E. coli

ELIC R286Q = target: T9, ELIC R286Q (Dickeya chrysanthemi, UniProt P0C7B7, R285Q); assay: as above; type: biochemical, Erwinia chrysanthemi; details: 25 mole% POPG
T9 construct: MBP (N, cleaved yes); made in house; host or cells: OverExpress C43 (DE3) E. coli

ELIC R117Q/R299Q = target: T10, ELIC R117Q/R299Q (Dickeya chrysanthemi, UniProt P0C7B7, R117Q/R298Q); assay: as above; type: biochemical, Erwinia chrysanthemi; details: 25 mole% POPG
T10 construct: MBP (N, cleaved yes); made in house; host or cells: OverExpress C43 (DE3) E. coli

ELIC WT [1] = assay: as above; details: for EC50: read-out: Dose response EC50 (mM cysteamine), peak current, 0.5 mM BaCl2
ELIC WT [2] = assay: Sequential-mixing stopped-flow fluorescence Tl+ flux assay in liposomes; type: biochemical, Erwinia chrysanthemi; details: 5 mM cysteamine
ELIC WT [3] = assay: Native MS phospholipid binding to delipidated ELIC in C10E5; parameters: species or system Erwinia chrysanthemi; details: binomial binding model, 32 sites of equal affinity; 1 μM ELIC in C10E5; read-out: Dissociation constant K
Procedure: Native MS analysis was similar to previous descriptions for other membrane proteins ([Gault et al., 2016]). For analysis of ELIC in DDM, 30 μl of purified protein in 0.02% DDM at ~1 mg/ml was buffer exchanged into 200 mM ammonium acetate pH 7.5% and 0.02% DDM using Biospin six gel filtration spin columns (Bio-Rad, Hercules, CA). 2 μl of buffer exchanged ELIC was loaded into a borosilicate capillary emitter (Thermo Scientific, Waltham, MA), and analyzed by static nanospray on a Thermo QExactive EMR mass spectrometer. The following parameters were used to resolve the ELIC pentamer and minimize dissociation into tetramer and monomer: capillary voltage of 1.2 kV, capillary temperature of 200°C, ion transfer optics set with the injection flatapole, inter-flatapole lens, bent flatapole, transfer multiple as 8, 7, 6, 4 V, respectively, resolution 8,750, AGC target 3 × 10^6, trap pressure set to maximum, CID 200 V, and CE 100 V. For analysis of ELIC in C10E5, ELIC delipidated by injecting 300 μg onto a Sephadex 200 10/300 column (GE Healthcare) at 0.5 ml/min pre-equilibrated with Buffer A, 10% glycerol, and 0.06% C10E5 (Anatrace). 30 μl aliquots were then buffer exchanged to 100 mM ammonium acetate pH 7.5, 0.06% C10E5 using Biospin six columns, and diluted to 0.2 mg/ml. MS measurements on the QExactive EMR were performed with the parameters listed above except: capillary temperature 100°C, CID 75 V and CE 200 V. For lipid binding measurements, stocks of POPG lipid were prepared at 2× the concentration of POPG being tested in 100 mM ammonium acetate pH 7.5% and 0.06% C10E5. Lipid stocks were then mixed with 0.4 mg/ml ELIC in a 1:1 vol ratio for a final concentration of 1 μM ELIC, and samples were analyzed after >5 min incubation.
MS spectra were deconvoluted using UniDec ([Marty et al., 2015]); deconvolution of spectra with bound lipid was restricted to the 26+ to 22+ charge states (Figure 1—figure supplement 3). Peak heights of apo and lipid-bound species were extracted from UniDec, and analyzed by two approaches. The average number of bound lipids was determined by the following relationship:(1) Averagenumberboundlipid=∑n=0kn\cdot In/∑n=0kIn where n is the number of bound lipids and In is the deconvoluted peak height of ELIC with n bound lipids. Peak heights of apo and lipid-bound species were also plotted as mole fraction versus the number of bound lipids (Figure 1—figure supplement 4).
Then, the probability (B) that q sites are occupied out of N total sites is given by the binomial probability function:(3) Bq=N!/q!N-q!p^N-q(1-p)^q
B(q) was used to determine the mole fraction of each lipid-bound species at a given [A], which was used to fit the native MS data in Excel across all [A] by setting K constant and varying N or vice versa.

ELIC WT [4] = assay: Thermal stability assay (SEC pentamer peak after heating); type: binding, Erwinia chrysanthemi; details: 1 μM ELIC in C10E5, 32°C for 15 min
Procedure: Purified WT ELIC in C10E5 (Buffer A, 0.06% C10E5) was diluted to 1 μM in the absence or presence of various concentrations of phospholipid. Samples were analyzed without and with heating in the absence or presence of phospholipid. […] The stabilizing effect of a phospholipid was quantified as the pentamer amplitude in the presence of phospholipid (heated) divided by control (heated).

[5] = target: the molecule itself; assay: native MS; ELIC purified in 0.02% DDM, buffer exchanged into 200 mM ammonium acetate pH 7.5, 0.02% DDM; static nanospray, Q-Exactive EMR, CID 200 V, CE 100 V; co-purified lipids bound
[6] = read-out: Cysteamine response EC50

Molecule: NCCS [cysteamine]
- Activation τ (ELIC R301Q; 30 mM cysteamine): 72 ± 15 ms
- Desensitization norm current at 20 s (ELIC R301Q; 30 mM cysteamine): 0.045 ± 0.017
- Desensitization weighted τ (ELIC R301Q; 30 mM cysteamine): 0.66 ± 0.28 s
- EC50 (ELIC R301Q; [6]): 5.2 ± 0.8 mM
- Activation τ (ELIC R301Q/R299Q; 30 mM cysteamine): 71 ± 21 ms
- Desensitization norm current at 20 s (ELIC R301Q/R299Q; 30 mM cysteamine): 0.030 ± 0.017
- Desensitization weighted τ (ELIC R301Q/R299Q; 30 mM cysteamine): 0.45 ± 0.28 s
- EC50 (ELIC R301Q/R299Q; [6]): 3.9 ± 0.9 mM
- Activation τ (ELIC R123Q; 30 mM cysteamine): 112 ± 65 ms
- Desensitization norm current at 20 s (ELIC R123Q; 30 mM cysteamine): 0.067 ± 0.015
- Desensitization weighted τ (ELIC R123Q; 30 mM cysteamine): 1.20 ± 0.39 s
- EC50 (ELIC R123Q; [6]): 3.7 ± 0.9 mM
- Activation τ (ELIC R123Q/R299Q; 30 mM cysteamine): 74 ± 35 ms
- Desensitization norm current at 20 s (ELIC R123Q/R299Q; 30 mM cysteamine): 0.041 ± 0.005
- Desensitization weighted τ (ELIC R123Q/R299Q; 30 mM cysteamine): 1.66 ± 0.17 s
- EC50 (ELIC R123Q/R299Q; [6]): 3.7 ± 0.6 mM
- Activation τ (ELIC L238A; 30 mM cysteamine): 113 ± 51 ms
- Desensitization norm current at 20 s (ELIC L238A; 30 mM cysteamine): 0.374 ± 0.045
- Desensitization weighted τ (ELIC L238A; 30 mM cysteamine): 5.90 ± 1.37 s
- EC50 (ELIC L238A; [6]): 4.9 ± 1.1 mM
- Activation τ (ELIC R117Q; 30 mM cysteamine): 54 ± 40 ms
- Desensitization norm current at 20 s (ELIC R117Q; 30 mM cysteamine): 0.060 ± 0.020
- Desensitization weighted τ (ELIC R117Q; 30 mM cysteamine): 1.49 ± 0.40 s
- EC50 (ELIC R117Q; [6]): 3.3 ± 0.9 mM
- Activation τ (ELIC R299Q; 30 mM cysteamine): 71 ± 27 ms
- Desensitization norm current at 20 s (ELIC R299Q; 30 mM cysteamine): 0.074 ± 0.008
- Desensitization weighted τ (ELIC R299Q; 30 mM cysteamine): 2.2 ± 0.17 s
- EC50 (ELIC R299Q; [6]): 4.7 ± 0.3 mM
- Activation τ (ELIC R286Q/R299Q; 30 mM cysteamine): 92 ± 27 ms
- Desensitization norm current at 20 s (ELIC R286Q/R299Q; 30 mM cysteamine): 0.103 ± 0.032
- Desensitization weighted τ (ELIC R286Q/R299Q; 30 mM cysteamine): 2.08 ± 0.65 s
- EC50 (ELIC R286Q/R299Q; [6]): 4.7 ± 1.5 mM
- Activation τ (ELIC R286Q; 30 mM cysteamine): 106 ± 34 ms
- Desensitization norm current at 20 s (ELIC R286Q; 30 mM cysteamine): 0.091 ± 0.023
- Desensitization weighted τ (ELIC R286Q; 30 mM cysteamine): 1.67 ± 0.24 s
- EC50 (ELIC R286Q; [6]): 4.3 ± 0.4 mM
- Activation τ (ELIC R117Q/R299Q; 30 mM cysteamine): 54 ± 26 ms
- Desensitization norm current at 20 s (ELIC R117Q/R299Q; 30 mM cysteamine): 0.025 ± 0.004
- Desensitization weighted τ (ELIC R117Q/R299Q; 30 mM cysteamine): 1.13 ± 0.24 s
- EC50 (ELIC R117Q/R299Q; [6]): 2.4 ± 0.7 mM
- Activation τ (ELIC WT [1]; 25 mole% POPG, 30 mM cysteamine): 134 ms and 134 ± 50 ms
- Desensitization norm current at 20 s (ELIC WT [1]; 25 mole% POPG, 30 mM cysteamine, normalized to peak response): 0.100 ± 0.041
- EC50 (ELIC WT [1]; 12 mole% POPG): 5.3 ± 1 mM
- EC50 (ELIC WT [1]; 25 mole% POPG): 5.1 ± 1.2 mM
- EC50 (ELIC WT [1]; 40 mole% POPG): 6.5 ± 1.3 mM

Molecule: CCCCCCCC/C=C\CCCCCCCC(=O)O[C@H](COC(=O)CCCCCCCCCCCCCCC)COP(=O)([O-])OCC[N+](C)(C)C [POPC, 1-palmitoyl-2-oleoyl-phosphatidylcholine]
- Fold faster rate of desensitization in POPC liposomes vs POPC:POPE:POPG liposomes (ELIC WT [2]): more than 20 fold
- Activation τ (ELIC WT [2]; liposome composition as labelled, double exponential fit, fast component): 39 ± 17 ms
- Desensitization τ (ELIC WT [2]; liposome composition as labelled, double exponential fit, slow component): 0.42 ± 0.05 s
- Kd (ELIC WT [3]): 0.28 mM
- Effect on ELIC stability against thermal denaturation (ELIC WT [4]): no effect

Molecule: CCCCCCCC/C=C\CCCCCCCC(=O)O[C@H](COC(=O)CCCCCCCCCCCCCCC)COP(=O)(O)OCCN [POPE, 1-palmitoyl-2-oleoyl-phosphatidylethanolamine]
- Kd (ELIC WT [3]): 0.19 mM
- Effect on ELIC stability against thermal denaturation (ELIC WT [4]): no effect

B1: Erwinia ligand-gated ion channel (ELIC), wild type (natural protein, Erwinia chrysanthemi, UniProt P0C7B7 1-321, looked up)
chain: APADNAADARPVDVSVSIFINKIYGVNTLEQTYKVDGYIVAQWTGKPRKTPGDKPLIVENTQIERWINNGLWVPALEFINVVGSPDTGNKRLMLFPDGRVIYNARFLGSFSNDMDFRLFPFDRQQFVLELEPFSYNNQQLRFSDIQVYTENIDNEEIDEWWIRKASTHISDIRYDHLSSVQPNQNEFSRITVRIDAVRNPSYYLWSFILPLGLIIAASWSVFWLESFSERLQTSFTLMLTVVAYAFYTSNILPRLPYTTVIDQMIIAGYGSIFAAILLIIFAHHRQAMGVEDDLLIQRCRLAFPLGFLAIGCVLVIRGITL
notes: Erwinia ligand-gated ion channel (ELIC), a pentameric ligand-gated ion channel of Erwinia chrysanthemi; expressed from pET26-MBP-ELIC (Addgene plasmid 39239); MBP was removed with HRV-3C protease before size exclusion; also called ELIC WT; WT; source: OverExpress C43 (DE3) E. coli, purified (membranes solubilized in DDM, amylose resin, HRV-3C digestion, size exclusion)
- stoichiometry N [5]: 5
